{"source": "patent US20180200206A1", "about": "“[…] METHODS AND COMPOSITIONS FOR TREATING BREAST DISORDERS” (ATOSSA GENETICS INC., priority 2015, published 2018)", "origin": "cited, not measured here", "target": "estrogen receptor (Homo sapiens, UniProt P03372)", "sequence (P03372 whole entry)": "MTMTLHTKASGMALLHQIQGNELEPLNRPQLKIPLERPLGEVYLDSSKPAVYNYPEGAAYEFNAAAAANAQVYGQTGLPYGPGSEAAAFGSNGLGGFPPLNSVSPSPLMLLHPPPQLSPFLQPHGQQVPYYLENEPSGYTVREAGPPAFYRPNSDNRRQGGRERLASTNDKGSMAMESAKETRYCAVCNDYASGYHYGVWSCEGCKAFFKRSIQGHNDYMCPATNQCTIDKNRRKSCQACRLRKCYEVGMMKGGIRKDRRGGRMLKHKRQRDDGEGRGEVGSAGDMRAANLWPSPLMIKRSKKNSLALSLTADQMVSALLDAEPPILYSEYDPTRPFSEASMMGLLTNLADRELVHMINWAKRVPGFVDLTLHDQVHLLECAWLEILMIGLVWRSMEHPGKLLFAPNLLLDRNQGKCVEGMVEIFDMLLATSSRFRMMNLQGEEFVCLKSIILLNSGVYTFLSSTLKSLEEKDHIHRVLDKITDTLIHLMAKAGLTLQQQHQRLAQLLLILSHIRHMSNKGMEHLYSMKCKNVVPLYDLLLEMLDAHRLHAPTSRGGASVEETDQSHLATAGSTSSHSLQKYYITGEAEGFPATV", "conditions": "more potent than tamoxifen; stated as known in the art"}
{"substance": "4-hydroxytamoxifen", "values": [{"measurement": "potency relative to tamoxifen", "result": 100, "unit": "times"}]}
